Assay [1] deals with murine hemangioendothelioma MHEC-5T cell line. Description: In vitro antiproliferative activity, MTT assay. In kind it is cell-based. The method, then: The following compounds were tested for in vitro antiproliferative activity against the murine hemangioendothelioma MHEC-5T cell line using a standard MTT assay (see Mosman, J. Immunol. Methods, 1983). In actively proliferating cells, an increase in MTT conversion is spectrophotometrically quantified by the reduction of MTT (3-[4,5-dimethylthiazol-2-yl]-2,5-diphenyl tetrazolium bromide) to the insoluble formazan dye by enzymes associated with metabolic activity. A compound with growth inhibitory activity will cause a reduction in dye formation relative to cells exposed to a vehicle control.

In assay [2] the test system is tubulin. Briefly: Inhibition of tubulin polymerization assay. To be noted: read-out: IC50, In Vitro Inhibition of Tubulin Polymerization; purified bovine brain tubulin, 15 min preincubation at 37° C. The assay is classed as biochemical. The method, then: IC50 values for tubulin polymerization were determined according to a previously described procedure (Bai et al, Cancer Research, 1996). Purified tubulin is obtained from bovine brain cells as described in Hamel and Lin (Hamel and Lin, Biochemistry, 1984). Various amounts of inhibitor were preincubated for 15 minutes at 37° C. with purified tubulin. After the incubation period, the reaction was cooled and GTP was added to induce tubulin polymerization. Polymerization was then monitored in a Gilford spectrophotometer at 350 nm. The final reaction mixtures (0.25 ml) contained 1.5 mg/ml tubulin, 0.6 mg/ml microtubule-associated proteins (MAPs), 0.5 mM GTP, 0.5 mM MgCl2, 4% DMSO and 0.1M 4-morpholineethanesulfonate buffer (MES, pH 6.4).

Assay [3] has as its system MHEC-5T hemangioendothelioma tumor. Description: Inhibition of tumor blood flow, Fluorescent Bead Assay. In kind it is in vivo, SCID mice. To be noted: for % VAPM (vessel area per tumor tissue area as a percentage of the control) / % VNPM (vessel number per tumor tissue area as a percentage of the control): 24 hours post-treatment. The procedure: The antivascular effects of the C-5 dihydronaphthalene phosphate prodrug Oxi-com 197, 43 was assessed in tumor-bearing mice using a Fluorescent Bead Assay. A MHEC-5T hemangioendothelioma tumor model was established by subcutaneous injection of 0.5×10^6 cultured transformed cell murine myocardial vascular endothelial cell line (“MHEC5-T”) cells into the right flank of Fox Chase CB-17 Severe Combined Immunodeficient (“SCID”) mice. When transplanted tumors reached a size of 500 mm^3 (a size without development of necrosis), the mice received a single intraperitoneal (i.p.) injection of saline control or compound at doses ranging from 3.2 to 25 mg/kg. At 24 hours post-treatment, mice were injected intravenously with 0.25 ml of diluted FluoSphere beads (1:6 in physiological saline) in the tail vein, sacrificed after 3 minutes, and tumor was excised for cryosectioning. Tumor cryosections at a thickness of 8 um were directly examined using quantitative fluorescent microscopy. Blood vessels were indicated by blue fluorescence from injected beads. For quantification, image analysis of 3 sections from three tumors treated in each group were examined and vascular shutdown was expressed as vessel area (mm^2) per tumor tissue area (mm^2) as a percentage of the control (“% VAPM”) and as vessel number per tumor tissue area (mm^2) as a percentage of the control (“% VNPM”). The results as shown in Table 11 indicate a clear dose-dependent effect of the agent on tumor blood flow as indicated by the reduction in blood vessel number and vessel area. Administration of a 25 mg/kg dose of Oxi-com 197 was particularly effective, causing a 90% reduction in tumor vessel number relative to the control.
Additional compounds of the present invention were tested for antivascular effects at two dosages (100 mg/kg and 10 mg/kg) using the same Fluorescent Bead Assay as in the previous experiment.

Assay [4] has as its system SF-295. Briefly: Growth inhibition, SF-295 CNS cancer cell line (SRB). In kind it is cell-based, human. The note with it: 48 hours. The procedure:
(§1) Briefly, the cell suspensions, diluted according to the particular cell type and the expected target cell density (5,000–40,000 cells per well based on cell growth characteristics), were added by pipet (100 μl) to 96-well microtiter plates. Inoculates were allowed a preincubation time of 24–28 hours at 37° C. for stabilization. Incubation with the inhibitor compounds lasted for 48 hours in 5% CO2 atmosphere and 100% humidity. Determination of cell growth was performed by in situ fixation of cells, followed by staining with a protein-binding dye sulforhodamine B (SRB), which binds to the basic amino acids of cellular macromolecules. The solubilized stain was measured spectrophotometrically.
(§2) Several compounds were evaluated for cytotoxic activity against […] P388 leukemia cell lines. […] These and additional compounds were evaluated in terms of growth inhibitory activity against several other human cancer cell lines including: central nervous system (“CNS”, SF-295), pancreas (BXPC-3), non-small cell lung cancer (“lung-NSC”, NCI-H460), breast (MCF-7), colon (KM20L2), and prostate (DU-145).

Assay [5] relates to BXPC-3. Description: Growth inhibition, BXPC-3 pancreas cancer cell line (SRB). The assay is classed as cell-based, human. To be noted: 48 hours. The procedure:
as §1, §2

Assay [6] has as its system NCI-H460. Briefly: Growth inhibition, NCI-H460 non-small cell lung cancer cell line (SRB). In kind it is cell-based, human. The note with it: lung-NSC, 48 hours. The procedure: as §1, §2
Assay [7] concerns MCF-7. Description: Growth inhibition, MCF-7 breast cancer cell line (SRB). The assay is classed as cell-based, human. The note with it: 48 hours. The method, then:
as §1, §2

Assay [8] deals with KM20L2. Briefly: Growth inhibition, KM20L2 colon cancer cell line (SRB). In kind it is cell-based, human. To be noted: 48 hours. The procedure: as §1, §2
Assay [9] has as its system DU-145. Description: Growth inhibition, DU-145 prostate cancer cell line (SRB). In kind it is cell-based, human. The note with it: 48 hours. The method, then: as §1, §2
For assay [10], the system named is MDA-MB-231 human breast adenocarcinoma. Briefly: Tumor growth control in vivo. On the set-up: species or system SCID mice. The method, then:
The antitumor activity of C-5 dihydronaphthalene phosphate prodrug, Oxi-com 197, was assessed in tumor-bearing mice by measuring its effects on tumor volume in comparison with CA4P. A human breast adenocarcinoma model was established by subcutaneous injection of cultured MDA-MB-231 cells in Fox Chase CB-17 SCID mice. When the average tumor size reached 50–100 mm^3, mice were randomly divided into several groups (n=10) with no significant difference in body weight and tumor size. Mice were administered CA4P or Oxi-com 197 in saline carrier at doses of 25, 50 or 100 mg/kg by daily intraperitoneal (i.p.) injection for 5 consecutive days (Q1×5). Saline carrier only was used as the control treatment. On Day 3, 7, 10, 13, 17 and 23, tumors were excised from animals in each treatment group (n=2) and measured by width and length. Tumor volume was calculated according to the following formula: Length×Width^2×0.4. The dosage effects of Oxi-com 197 is illustrated in FIG. 14.

Setting [11] is: 5 days, read-out: IC50 at 5 days.
Setting [12] is: read-out: IC50 at 1 hour, 1 hour.

Molecules are shown by their SMILES. Where two headings read alike, the source gives them in different places.

On to `COc1ccc(C2=CCCc3c2ccc(OC)c3O)c(OC)c1` [Oxi-com 238], for which the concentration for half-maximal inhibition (IC50) in [1] (setting [11]) was determined as 40 nM; in [1] (setting [12]), 14000 nM.
Consider `CCOP(=O)(Nc1c(OC)ccc2c1CCC=C2c1cc(OC)c(OC)c(OC)c1)OCC` [Oxi-com 143, 6-methoxy-1-(3′,4′,5′-trimethoxyphenyl)-5-diethylphosphoramidate-3,4-dihydronapthalene], for which, in assay [2], the 50% inhibitory concentration (IC50) was over 40000 nM.
Regarding `COc1ccc(C2=CCCc3c2ccc(OC)c3OP(=O)(O)O)cc1OC` [Oxi-com 243], the results for the IC50 in [1] (setting [11]) and in assay [1] (setting [12]) were 300 nM and 20000 nM, respectively.
The like results for `COc1ccc(OC)c(C2=CCCc3c2ccc(OC)c3O)c1` [Oxi-com 240] were, in that order, 30 nM and 8000 nM.
The like results for `COc1ccc(OC)c(C2=CCCc3c2ccc(OC)c3OP(=O)(O)O)c1` [Oxi-com 241] were, in that order, 80 nM and 2500 nM.
In the case of `COc1cc(C(=O)C2=CCCc3c2ccc(OC)c3OP(=O)([O-])[O-])cc(OC)c1OC.[Na+].[Na+]` [Oxi-com 224], the concentration for half-maximal inhibition (IC50) in assay [1] (setting [11]) came out at 3 nM. The half-maximal inhibitory concentration (IC50) in assay [1] (setting [12]) came to 400 nM. In [3], the “% VAPM at 10 mg/kg dose” value came to 17% and the “% VAPM at 100 mg/kg dose” value was 46%.
Regarding `COc1cc2c(cc1O)C(c1cc(OC)c(OC)c(OC)c1)=CCC2` [Oxi-com 158], in [4], the “GI50 for Cell Line SF-295” value came to 5.4 µg/mL. Also, in assay [5], the “GI50 for Cell Line BXPC-3” value came to 1.8 µg/mL. Besides, in assay [6], the “GI50 for Cell Line NCI-H460” value stood at 3.2 µg/mL. For the same molecule, the “GI50 for Cell Line MCF-7” value in assay [7] worked out at 1.5 µg/mL. In addition, in assay [8], the “GI50 for Cell Line KM20L2” value is 2.6 µg/mL. In addition, the “GI50 for Cell Line DU-145” value in [9] came to 3.4 µg/mL.
Regarding `COc1cc(C2=CCCc3c2cc(OP(=O)(O)O)c(OC)c3OP(=O)(O)O)cc(OC)c1OC` [Oxi-com 199], the IC50 in assay [2] is over 40000 nM; in assay [1] (setting [11]) it was over 44800 nM; in assay [1] (setting [12]) it was over 44800 nM.
For `COc1ccc2c(c1NC(=O)[C@@H](N)CO)CCC=C2c1cc(OC)c(OC)c(OC)c1` [Oxi-com 229], the IC50 was over 1400 nM in [1] (setting [11]) and over 44000 nM in assay [1] (setting [12]).
On to `COc1cc(C2=CCCc3c2ccc(OC)c3OP(=O)([O-])[O-])cc(OC)c1OC.[Na+].[Na+]` [Oxi-com 197], for which the “GI50 for Cell Line SF-295” value in assay [4] was determined as 0.0033 µg/mL. For the same molecule, the “GI50 for Cell Line BXPC-3” value in [5] stood at 0.28 µg/mL. Further, the “GI50 for Cell Line NCI-H460” value in assay [6] amounted to 0.011 µg/mL. Further, in [7], the “GI50 for Cell Line MCF-7” value was 0.0045 µg/mL. The “GI50 for Cell Line KM20L2” value in [8] is 0.33 µg/mL. Moreover, in assay [9], the “GI50 for Cell Line DU-145” value was found to be 0.0055 µg/mL. Besides, the concentration for half-maximal inhibition (IC50) was 3 nM in assay [1] (setting [11]) and 100 nM in assay [1] (setting [12]). Further, the figures for the “% VAPM (vessel area per tumor tissue area as a percentage of the control)” value in [3] (6.3 mg/kg single i.p.), in [3] (12.5 mg/kg single i.p.) and in assay [3] (25 mg/kg single i.p.) were 65.4 ± 4.9%, 32.2 ± 6.8% and 13.0 ± 5.0%, respectively. In addition, the “% VNPM (vessel number per tumor tissue area as a percentage of the control)” value in assay [3] (6.3 mg/kg single i.p.) was 66.5 ± 0.5%; in assay [3] (12.5 mg/kg single i.p.), 55.5 ± 0.8%; in assay [3] (25 mg/kg single i.p.) it was 10.4 ± 6.3%. Further, the “reduction in tumor vessel number relative to the control” value in assay [3] (25 mg/kg dose) is given as 90%. In addition, the “tumor growth (tumor volume) relative to control treatment” value in assay [10] (25, 50, and 100 mg/kg i.p. daily for 5 days (Q1×5)) is listed as “significantly inhibited tumor growth”. The “antitumor activity relative to CA4P” value in [10] (MDA-MB-231 model, i.p. Q1×5) is on record as “enhanced antitumor activity relative to CA4P”.
For the molecule `COc1cc(C(=O)c2cccc3c(OP(=O)([O-])[O-])c(OC)ccc23)cc(OC)c1OC.[Na+].[Na+]` [Oxi-com 225], the IC50 in assay [1] (setting [11]) stood at 5 nM. Also, the IC50 in [1] (setting [12]) came to 400 nM. In assay [3], the “% VAPM at 10 mg/kg dose” value was 35% and the “% VAPM at 100 mg/kg dose” value is given as 60%.
As for `COc1cc(C2=CCCc3c2cc(O)c(OC)c3O)cc(OC)c1OC` [Oxi-com 200], the results for the half-inhibitory concentration (IC50) in [1] (setting [11]) and in assay [1] (setting [12]) were 16200 nM and over 50000 nM, respectively.
The like results for `COc1ccc(C2=CCCc3c2ccc(OC)c3OP(=O)(O)O)c(OC)c1` [Oxi-com 239] were, in that order, 60 nM and 2400 nM.

(Values after patent US7001926B2, “Tubulin binding agents and corresponding prodrug constructs” (Oxigene, Inc., priority 2000, dated 2006).)
